The results in this text go back to ChEMBL document CHEMBL3817764, “Pyrimidine-based antimalarials: design strategies and antiplasmodial effects” (Medchemcomm, 2016).

For one assay, the system named is Plasmodium falciparum. Briefly: Antimalarial activity against Plasmodium falciparum V1/S harboring DHFR N51I+C59R+S108N+I164L quadruple mutant assessed as reduction parasite growth by [3H]-hypoxanthine incorporation assay. It counts as functional, organism-based.
For assay [1], the target named is Dihydroorotate dehydrogenase (quinone), mitochondrial (Homo sapiens, UniProt Q02127). Briefly: Inhibition of human DHODH.
The subject of a further assay is Plasmodium berghei. The assay can be described thus: Antiplasmodial against Plasmodium berghei in rat malaria model assessed as parasite suppression at 30 mg/kg measured after 4 days. It counts as functional.

Each structure is given as a SMILES string.

What is called EC50 is the concentration needed to bring the measured effect to its halfway point. In general, IC50 refers to the concentration at which inhibition is half-maximal.

Sequence of Dihydroorotate dehydrogenase (quinone), mitochondrial (Q02127 whole entry): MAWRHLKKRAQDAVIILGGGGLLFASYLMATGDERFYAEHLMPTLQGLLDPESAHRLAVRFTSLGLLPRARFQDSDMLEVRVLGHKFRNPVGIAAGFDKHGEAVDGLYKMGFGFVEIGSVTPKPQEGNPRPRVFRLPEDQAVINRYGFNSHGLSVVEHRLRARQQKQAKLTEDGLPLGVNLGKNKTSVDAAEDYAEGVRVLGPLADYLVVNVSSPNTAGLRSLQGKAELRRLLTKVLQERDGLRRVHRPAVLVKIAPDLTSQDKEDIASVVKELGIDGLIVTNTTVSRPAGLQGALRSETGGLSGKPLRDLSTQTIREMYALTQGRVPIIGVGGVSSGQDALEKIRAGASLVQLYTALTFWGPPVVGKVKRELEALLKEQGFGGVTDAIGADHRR

Take `CCc1nc(N)nc(N)c1OCCCOc1ccccc1CCC(=O)O`: the EC50 with Plasmodium falciparum stood at 56 nM.

In assay [1], `Cc1cc(Nc2ccc3ccccc3c2)n2ncnc2n1` yielded an IC50 of more than 200000 nM.

With `Clc1ccc2c(NCCNc3ccnc(N4CCOCC4)n3)ccnc2c1`, the Activity in the assay on Plasmodium berghei is reported as 93.9%.
